As a reminder, the IC50 is the midpoint of a concentration-inhibition curve.

Here are results for three compounds from BindingDB's records for doi:10.1016/j.ejmech.2019.05.027 (Central University of Punjab, 2019).

The nature of data set [1]: Inhibition of P-gp in HEK293/ABCB1 cells assessed as potentiation of cisplatin-induced cytotoxicity by measuring cisplatin IC50 at 2 uM incubated for 48 hrs by MTT assay (Rvb = 8.08 uM). A general note: Tetrazolium dyes change colour on reduction, which living cells bring about.
For data set [2], the target named is T1, ATP-dependent translocase ABCB1 (Homo sapiens, UniProt P08183). In words: Inhibition of P-gp in HEK293/ABCB1 cells assessed as potentiation of doxorubicin-induced cytotoxicity by measuring doxorubicin IC50 at 1 uM incubated for 48 hrs by MTT assay (Rvb = 8.08 uM).
Data set [3] addresses T1, ATP-dependent translocase ABCB1. In words: Inhibition of P-gp in human NCI-H460/R cells assessed as potentiation of doxorubicin-induced cytotoxicity by measuring reduction in doxorubicin IC50 at 0.1 to 2.5 uM incubated for 72 hrs by MTT assay.
For data set [4] the target is unchanged. In words: Inhibition of P-gp in human Caco2 cells assessed as potentiation of doxorubicin-induced cytotoxicity by measuring reduction in doxorubicin IC50 at 2.2 uM incubated for 24 hrs by MTT assay.

Molecules are shown by their SMILES. Residues, ends and D or L forms follow the SMILES beside them.

T1 sequence (P08183 whole entry): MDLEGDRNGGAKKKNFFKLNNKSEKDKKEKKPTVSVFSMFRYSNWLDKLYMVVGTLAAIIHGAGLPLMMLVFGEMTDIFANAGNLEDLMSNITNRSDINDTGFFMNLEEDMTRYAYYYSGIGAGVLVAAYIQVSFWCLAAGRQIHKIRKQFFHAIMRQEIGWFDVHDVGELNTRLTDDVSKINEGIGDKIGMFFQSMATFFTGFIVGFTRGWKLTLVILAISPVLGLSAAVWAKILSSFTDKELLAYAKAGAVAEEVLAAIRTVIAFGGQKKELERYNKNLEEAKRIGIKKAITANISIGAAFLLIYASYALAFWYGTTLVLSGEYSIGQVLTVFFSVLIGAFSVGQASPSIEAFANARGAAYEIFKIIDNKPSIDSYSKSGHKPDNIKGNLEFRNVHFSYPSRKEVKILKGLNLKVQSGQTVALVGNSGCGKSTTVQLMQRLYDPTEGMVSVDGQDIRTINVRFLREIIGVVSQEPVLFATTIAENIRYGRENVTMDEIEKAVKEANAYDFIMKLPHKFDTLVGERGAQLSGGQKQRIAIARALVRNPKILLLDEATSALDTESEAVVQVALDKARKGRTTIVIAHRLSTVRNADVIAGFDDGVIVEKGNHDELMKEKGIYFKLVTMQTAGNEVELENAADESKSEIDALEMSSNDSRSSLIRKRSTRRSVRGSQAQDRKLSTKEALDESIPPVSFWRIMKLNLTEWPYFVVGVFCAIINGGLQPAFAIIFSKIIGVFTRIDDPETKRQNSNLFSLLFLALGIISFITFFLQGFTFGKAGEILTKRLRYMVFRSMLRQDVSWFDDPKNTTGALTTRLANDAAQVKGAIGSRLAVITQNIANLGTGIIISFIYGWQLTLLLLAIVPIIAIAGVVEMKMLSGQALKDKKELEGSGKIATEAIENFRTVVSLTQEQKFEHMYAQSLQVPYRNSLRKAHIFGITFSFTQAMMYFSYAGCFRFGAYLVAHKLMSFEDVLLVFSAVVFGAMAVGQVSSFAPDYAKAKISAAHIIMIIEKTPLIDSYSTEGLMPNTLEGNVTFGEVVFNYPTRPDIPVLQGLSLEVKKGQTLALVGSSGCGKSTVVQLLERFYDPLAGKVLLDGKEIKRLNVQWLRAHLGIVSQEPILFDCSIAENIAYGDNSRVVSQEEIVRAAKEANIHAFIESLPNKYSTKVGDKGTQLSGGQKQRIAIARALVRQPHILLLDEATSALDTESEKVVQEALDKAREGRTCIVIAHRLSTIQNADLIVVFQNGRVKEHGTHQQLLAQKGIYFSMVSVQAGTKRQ

Regarding `CCOc1cc(O)cc2c1C[C@@H](OC(=O)c1cc(OCC)c(OCC)c(OCC)c1)[C@@H](c1cc(O)c(OCC)c(OCC)c1)O2`, the values for the IC50 in data set [1] and in data set [2] were 0.92 µM and 0.62 µM, respectively. Consider `CC(C)[C@H](NC(=O)[C@H](CO)NC(=O)[C@@H](N)Cc1ccc(O)cc1)C(=O)O` (H-Tyr-Ser-Val-OH), for which the IC50 in data set [3] is 0.7 µM. Consider `CC1(C)O[C@H]2CC(=O)OC[C@]23[C@H]2CC[C@@]4(C)[C@H](c5ccoc5)OC(=O)[C@H]5O[C@]54[C@]2(C)C(=O)C[C@@H]13` [Limonin], for which, in data set [4], the IC50 amounted to 19.1 µM.
